{"source": "paper PMC10178848", "about": "“Modulating fast skeletal muscle contraction protects skeletal muscle in animal models of Duchenne muscular dystrophy” (The Journal of Clinical Investigation, 2023)", "test_system": "mdx mouse EDL muscle", "assay": "Phosphoprotein array analysis (Cell Signaling Phospho Antibody Array)", "conditions": "T vs C", "protocol": "mdx mouse EDL muscle was prepared for ex vivo analysis as described (n = 5). Muscles were incubated for 1 hour with DMSO or EDG-5506 (5 μM) and then flash frozen in liquid nitrogen. Tissue preparation and analysis were performed as recommended by the manufacturer (Cell Signaling Phospho Antibody Array, Full Moon Biosystems)."}
{"smiles": "O=c1ccc(-c2cnc(OCC(F)(F)F)nc2)nn1Cc1cncc(F)c1", "note": "[EDG-5506]", "values": [{"measurement": "Fold Change between Samples T/C: Tau (Phospho-Ser396)", "result": 0.90}, {"measurement": "Fold Change between Samples T/C: VEGFR2 (Phospho-Tyr1175)", "result": 0.84}, {"measurement": "Fold Change between Samples T/C: Zap-70 (Phospho-Tyr319)", "result": 1.04}, {"measurement": "Fold Change between Samples T/C: c-Jun (Phospho-Ser73)", "result": 0.91}, {"measurement": "Fold Change between Samples T/C: p44/42 MAP Kinase (Phospho-Tyr204)", "result": 0.88}, {"measurement": "Fold Change between Samples T/C: p53 (Phospho-Ser15)", "result": 0.20}, {"measurement": "Ratio (T/C): 4E-BP1 (Phospho-Thr45) to total 4E-BP1 (Ab-45)", "setting": "phospho/total", "result": 0.8337}, {"measurement": "Ratio (T/C): 14-3-3 theta/tau (Phospho-Ser232) to total 14-3-3 zeta/delta (Ab-232)", "setting": "phospho/total", "result": 0.9814}, {"measurement": "Ratio (T/C): ACC1 (Phospho-Ser80) to total ACC1 (Ab-80)", "setting": "phospho/total", "result": 0.9544}, {"measurement": "Ratio (T/C): AKT1 (Phospho-Ser473) to total AKT1 (Ab-308)", "setting": "phospho/total", "result": 0.8575}, {"measurement": "Ratio (T/C): AKT1S1 (Phospho-Thr246) to total AKT1S1 (Ab-246)", "setting": "phospho/total", "result": 1.16}, {"measurement": "Ratio (T/C): AMPKbeta1 (Phospho-Ser182) to total AMPKbeta1 (Ab-182)", "setting": "phospho/total", "result": 0.902}, {"measurement": "Ratio (T/C): ASK1 (Phospho-Ser966) to total ASK1 (Ab-966)", "setting": "phospho/total", "result": 0.799}, {"measurement": "Ratio (T/C): ATF2 (Phospho-Ser62/44) to total ATF2 (Ab-62/44)", "setting": "phospho/total", "result": 0.3856}, {"measurement": "Ratio (T/C): Abl1 (Phospho-Thr754/735) to total Abl1 (Ab-754/735)", "setting": "phospho/total", "result": 1.124}, {"measurement": "Ratio (T/C): Actin Pan(a/b/g) (Phospho-Tyr55/53) to total Actin Pan(a/b/g) (Ab-55/53)", "setting": "phospho/total", "result": 0.9642}, {"measurement": "Ratio (T/C): B-RAF (Phospho-Ser446) to total B-RAF (Ab-598)", "setting": "phospho/total", "result": 0.9669}, {"measurement": "Ratio (T/C): BAX (Phospho-Thr167) to total Bax", "setting": "phospho/total", "result": 0.8854}, {"measurement": "Ratio (T/C): BCL-XL (Phospho-Ser62) to total BCL-XL (Ab-47)", "setting": "phospho/total", "result": 0.5743}, {"measurement": "Ratio (T/C): BID (Phospho-Ser78) to total BID (Ab-78)", "setting": "phospho/total", "result": 0.7661}, {"measurement": "Ratio (T/C): BLNK (Phospho-Tyr96) to total BLNK (Ab-96)", "setting": "phospho/total", "result": 0.53}, {"measurement": "Ratio (T/C): BRCA1 (Phospho-Ser1423) to total BRCA1 (Ab-1524)", "setting": "phospho/total", "result": 0.7749}, {"measurement": "Ratio (T/C): CDC25C (Phospho-Ser216) to total CDC25C (Ab-216)", "setting": "phospho/total", "result": 0.4323}, {"measurement": "Ratio (T/C): CDK1/CDC2 (Phospho-Tyr15) to total CDK1/CDC2 (Ab-15)", "setting": "phospho/total", "result": 0.7557}, {"measurement": "Ratio (T/C): CREB (Phospho-Ser133) to total CREB (Ab-133)", "setting": "phospho/total", "result": 1.041}, {"measurement": "Ratio (T/C): CaMK2-beta/gamma/delta (Phospho-Thr287) to total CaMK2-beta/gamma/delta (Ab-287)", "setting": "phospho/total", "result": 0.6524}, {"measurement": "Ratio (T/C): CaMK2A (Phospho-Thr286) to total CaMK2A (Ab-286)", "setting": "phospho/total", "result": 0.848}, {"measurement": "Ratio (T/C): Caspase 1 (Phospho-Ser376) to total Caspase 1 (Ab-376)", "setting": "phospho/total", "result": 0.6605}, {"measurement": "Ratio (T/C): Caspase 8 (Phospho-Ser347) to total Caspase 8 (Ab-347)", "setting": "phospho/total", "result": 1.051}, {"measurement": "Ratio (T/C): Caspase 9 (Phospho-Ser196) to total Caspase 9 (Ab-196)", "setting": "phospho/total", "result": 0.4054}, {"measurement": "Ratio (T/C): Catalase (Phospho-Tyr385) to total Catalase (Ab-385)", "setting": "phospho/total", "result": 0.7422}, {"measurement": "Ratio (T/C): Catenin beta (Phospho-Thr41/Ser45) to total Catenin beta (Ab-37)", "setting": "phospho/total", "result": 0.6858}, {"measurement": "Ratio (T/C): Chk1 (Phospho-Ser286) to total Chk1 (Ab-286)", "setting": "phospho/total", "result": 0.7615}, {"measurement": "Ratio (T/C): Chk2 (Phospho-Thr68) to total Chk2 (Ab-68)", "setting": "phospho/total", "result": 0.4403}, {"measurement": "Ratio (T/C): CrkII (Phospho-Tyr221) to total CrkII (Ab-221)", "setting": "phospho/total", "result": 0.7162}, {"measurement": "Ratio (T/C): Cyclin D1 (Phospho-Thr286) to total Cyclin D1 (Ab-286)", "setting": "phospho/total", "result": 1.068}, {"measurement": "Ratio (T/C): Cyclin E1 (Phospho-Thr77) to total Cyclin E1 (Ab-77)", "setting": "phospho/total", "result": 0.8189}, {"measurement": "Ratio (T/C): DARPP-32 (Phospho-Thr34) to total DARPP-32 (Ab-34)", "setting": "phospho/total", "result": 0.8988}, {"measurement": "Ratio (T/C): EEF2 (Phospho-Thr56) to total EEF2 (Ab-56)", "setting": "phospho/total", "result": 1.324}, {"measurement": "Ratio (T/C): EGFR (Phospho-Tyr869) to total EGFR (Ab-1172)", "setting": "phospho/total", "result": 1.314}, {"measurement": "Ratio (T/C): EGFR (Phospho-Tyr1172) to total EGFR (Ab-1172)", "setting": "phospho/total", "result": 0.9484}, {"measurement": "Ratio (T/C): Elk1 (Phospho-Ser383) to total Elk1 (Ab-389)", "setting": "phospho/total", "result": 0.8083}, {"measurement": "Ratio (T/C): FAK (Phospho-Ser910) to total FAK (Ab-910)", "setting": "phospho/total", "result": 0.6171}, {"measurement": "Ratio (T/C): FGFR1 (Phospho-Tyr654) to total FGFR1 (Ab-766)", "setting": "phospho/total", "result": 1.2323}, {"measurement": "Ratio (T/C): FKHRL1/FOXO3A (Phospho-Ser253) to total FKHRL1/FOXO3A (Ab-253)", "setting": "phospho/total", "result": 0.5092}, {"measurement": "Ratio (T/C): FOXO1/3/4-pan (Phospho-Thr24/32) to total FOXO1/3/4-pan (Ab-24/32)", "setting": "phospho/total", "result": 0.8412}, {"measurement": "Ratio (T/C): GRK2 (Phospho-Ser29) to total GRK2 (Ab-29)", "setting": "phospho/total", "result": 0.6549}, {"measurement": "Ratio (T/C): GSK3 beta (Phospho-Ser9) to total GSK3 beta", "setting": "phospho/total", "result": 0.6837}, {"measurement": "Ratio (T/C): HDAC1 (Phospho-Ser421) to total HDAC1 (Ab-421)", "setting": "phospho/total", "result": 1.576}, {"measurement": "Ratio (T/C): HDAC2 (Phospho-Ser394) to total HDAC2 (Ab-394)", "setting": "phospho/total", "result": 0.8716}, {"measurement": "Ratio (T/C): HER2 (Phospho-Tyr1221/Tyr1222) to total HER2 (Ab-1221/1222)", "setting": "phospho/total", "result": 0.7289}, {"measurement": "Ratio (T/C): HER2 (Phospho-Tyr1248) to total HER2 (Ab-1221/1222)", "setting": "phospho/total", "result": 0.9858}, {"measurement": "Ratio (T/C): HSP27 (Phospho-Ser82) to total HSP27 (Ab-82)", "setting": "phospho/total", "result": 1.177}, {"measurement": "Ratio (T/C): HSP90B (Phospho-Ser226) to total HSP90B (Ab-254)", "setting": "phospho/total", "result": 0.9521}, {"measurement": "Ratio (T/C): IKK alpha/beta (Phospho-Ser180/181) to total IKK alpha/beta (Ab-180/181)", "setting": "phospho/total", "result": 0.9407}, {"measurement": "Ratio (T/C): IKK-beta (Phospho-Tyr188) to total IKK-beta (Ab-199)", "setting": "phospho/total", "result": 0.6267}, {"measurement": "Ratio (T/C): IKK-beta (Phospho-Tyr199) to total IKK-beta (Ab-199)", "setting": "phospho/total", "result": 0.8262}, {"measurement": "Ratio (T/C): IKK-gamma (Phospho-Ser31) to total IKK-gamma (Ab-31)", "setting": "phospho/total", "result": 1.02}, {"measurement": "Ratio (T/C): IL-4R/CD124 (Phospho-Tyr497) to total IL-4R/CD124 (Ab-497)", "setting": "phospho/total", "result": 0.9976}, {"measurement": "Ratio (T/C): IL-10R-alpha (Phospho-Tyr496) to total IL-10R-alpha (Ab-496)", "setting": "phospho/total", "result": 0.6514}, {"measurement": "Ratio (T/C): IRS-1 (Phospho-Ser312) to total IRS-1 (Ab-312)", "setting": "phospho/total", "result": 0.9305}, {"measurement": "Ratio (T/C): IkB-alpha (Phospho-Ser32/36) to total IkB-alpha (Ab-32/36)", "setting": "phospho/total", "result": 1.258}, {"measurement": "Ratio (T/C): IkB-epsilon (Phospho-Ser22) to total IkB-epsilon (Ab-22)", "setting": "phospho/total", "result": 0.98}]}
